Literature values as cited in US20070092572A1, “Bone cement compositions and the like comprising an RNAIII-inhibiting peptide” (priority 2005, published 2007).
Read-outs that look alike come from different tables or passages of the source. Where no end group is shown, it is not given here.

What was measured:
[1] = system: MRSA, MRSE, VISA, VISE, GISA, GISE, MSSA, MSSE; details: Graft injection, rat, +RIP
[2] = system: S. aureus MS; details: Osteomyelitis, rabbit, strain MS, +RIP
[3] = system: S. aureus LS-1; details: Arthritis, mouse, strain LS-1, +RIP
[4] = system: S. aureus Smith diffuse; details: Cellulitis/sepsis, mouse, strain Smith diffuse, +RIP
[5] = system: S. aureus LS-1; details: Sepsis, mouse, strain LS-1, +RIP
[6] = system: S. aureus 8325-4; details: Keratitis, rabbit, strain 8325-4, +RIP
[7] = system: S. aureus Newbould/AE-1; details: Mastitis, cow, strain Newbould/AE-1, +RIP
[8] = system: S. aureus; details: non-amidated versus amide form

Row | Substance | % animals disease free [1] | % animals disease free [2] | % animals disease free [3] | % animals disease free [4] | % animals disease free [5] | % animals disease free [6] | % animals disease free [7] | activity of the peptide form [8]
1 | YSPWTNF(-NH2) (YSPWTNF-NH2) [RIP, amide form of a synthetic RIP analogue] | Up to 100% | 58% | 60% | Up to 100% | 44% | 40% | 70-100% | 
2 | non-amidated form of synthetic RIP: non-amidated form of the synthetic RIP analogue YSPWTNF (YSPWTNF-OH) |  |  |  |  |  |  |  | inactive
